Source: US20220257518A1, “LONG-LASTING FORMULATION CONTAINING RIVASTIGMINE, AND METHOD FOR PREPARING SAME” (priority 2019, published 2022)

Experiment: Rivastigmine and pamoate contents in rivastigmine pamoate (HPLC)
Format: physicochemical
Conditions: HPLC 210 nm
Method: In order to measure the contents of rivastigmine and pamoate of rivastigmine pamoate prepared in Example 1, the sample 10 mg was completely dissolved with dimethyl sulfoxide, and then was diluted into a mobile phase. The diluted solution 20 uL was injected to HPLC and was measured at a detection wavelength 210 nm. The column used in the present measurement was Inertsil ODS-3, 5 um, 4.6×250 mm, and the mobile phase was used by mixing phosphate buffer solution (pH 6.0) and acetonitrile at a ratio of 65:35 (v/v).

Row | Compound | Pamoate content of rivastigmine pamoate | Rivastigmine content of rivastigmine pamoate
1 | rivastigmine pamoate [Sample 1-1] | 40.49 % by weight | 57.47 % by weight
2 | rivastigmine pamoate [Sample 1-2] | 40.47 % by weight | 52.45 % by weight
3 | rivastigmine pamoate [Sample 1-3] | 53.79 % by weight | 41.10 % by weight
4 | rivastigmine pamoate [Sample 1-4] | 68.93 % by weight | 32.19 % by weight

Experiment: not given
Conditions: cited from earlier work

Row | Compound | Solubility in water
5 | CCN(C)C(=O)Oc1cccc([C@H](C)N(C)C)c1 [rivastigmine freebase, rivastigmine] | ≤ 5000 µg/mL
